Results as given in patent publication US20250144107A1, “USE OF A PIKFYVE INHIBITOR IN COMBINATION WITH IMMUNOTHERAPY” (The Regents of the University of Michigan, priority 2023, published 2025).

Tests used:
[1] = system: subcutaneous tumors derived from OVA-expressing B16-F10 cells; experiment: Adoptive cell therapy in subcutaneous B16-F10-OVA tumor model; assay type: in vivo, mice; conditions: combination with ACT
Text: FIG. 10A is an experimental timeline of the efficacy against subcutaneous ovalbumin-expressing B16-F10 (B16-F10-OVA) tumors treated with adoptive cell therapy (ACT) in combination with apilimod or ESK981.
FIG. 10B is a series of 6 line graphs showing the growth of subcutaneous ovalbumin-expressing B16-F10 (B16-F10-OVA) tumors treated with adoptive cell therapy (ACT) in combination with apilimod or ESK981.
FIG. 10C is a line graph of the survival of mice with subcutaneous ovalbumin-expressing B16-F10 (B16-F10-OVA) tumors treated with adoptive cell therapy (ACT) in combination with apilimod or ESK981.
All experimental protocols were conducted after approval by the U-M Institutional Animal Care & Use Committee. […] KPC1361 cells were resuspended in PBS, 1:1 (v/v) mixed with Matrigel (BD Biosciences; catalog #: 354248), and orthotopically injected to the pancreases at 250,000 cells in a total volume of 50 μl per injection. B16-F10 cells were resuspended in PBS and injected subcutaneously to both flanks at 400,000 cells per injection. For ACT study, B16-F10-OVA cells were resuspended in PBS and injected subcutaneously to both flanks at 300,000 cells per injection. For lung metastasis experiment, B16-BL6 cells were resuspended in PBS, 1:1 (v/v) mixed with Matrigel and injected subcutaneously to both flanks at 400,000 cells per injection. Fifteen days after tumor cell inoculation, the primary tumors were removed surgically under anesthesia. Thirty-five days after removal of the primary tumors, lung tissues were extracted and fixed, and lung metastasis was quantified. C57BL/6 mice were acquired from The Jackson Laboratory. Measurement of tumor volume began 5-9 days post tumor cell implantation and was performed 2-3 times per week using calipers. Volume measurements of pancreatic tumors were also achieved with calipers, as reported See, e.g., Koikawa, K. et al., Cell 2021; 184(18):4753-4771. In brief, mice were subjected to anesthesia with 2-3% isoflurane, and the abdominal wall then became soft and loose. The mouse was next held with the left hand allowing for the palpation and assessment of the firm pancreatic tumor mass with the right hand. […] Volume (mm^3) of tumor was calculated using (W^2×L)/2, where W stood for minor tumor axis and L for the major. All mice were maintained in a pathogen-free condition, with a 12-hour light/dark cycle.
For ICB treatment in KPC1361 pancreatic tumor-bearing mice, randomization was performed when tumors reached approximately 100 mm^3. For ACT and vaccine experiments, the mice were randomized when tumors reached approximately 35 mm^3. Anti-mouse PD-1 (clone RMP1-14) and its isotype control were purchased from BioXcell, administered intraperitoneally at 250 μg per mouse, biweekly. […]

[2] = system: KPC1361 (pancreas), B16-F10 (melanoma), 4T1 (breast), and MyC-CaP (prostate); experiment: Flow cytometry of MHC-I surface expression in murine cancer cells; assay type: cell-based; conditions: with or without IFN-γ; in a dose-dependent manner
Text: (§1) FIG. 1E (Left) is line graphs of flow cytometry measuring MHC-I surface expression in KPC1361 cells, stimulated with or without IFN-γ, treated with DMSO, Apilimod, or ESK981; (Right) are bar graphs of quantification of flow cytometry measuring MHC-I surface expression in KPC1361 cells, stimulated with or without IFN-γ, treated with DMSO, Apilimod, or ESK981.
as §1, with “FIG. 2A” for “FIG. 1E”, “in MyC-CaP” for “in KPC1361”, “(Right) is a” for “(Right) are”, “bar graph” for “bar graphs”
Cancer cells or the OVA-expressing cancer cells treated in vitro were harvested from dishes, resuspended in buffer MACS (PBS containing 2% FBS and 2 mM EDTA), and stained with Zombie NIR™ Fixable Viability kit (BioLegend: #423106) and fluorophore-conjugated antibody against MHC-I or PE-conjugated antibody against SIINFEKL bound H-2Kb (BioLegend; catalog #141604), respectively. The cells were next washed twice with 1 ml MACS and fixed with 2% paraformaldehyde in PBS for 15 minutes at room temperature. The cells were then subjected to the flow cytometer (SONY SH800S) for measuring surface expression of MHC-I or SIINFEKL bound H-2Kb, respectively. […]

Row | Compound | efficacy of the ACT [1] | survival of the animals [1] | constitutive and induced surface expression of MHC-I [2]
1 | CC(C)Cn1c2ccc(Nc3ncccn3)cc2c2c3c(c4c(c21)CCc1nn(C)cc1-4)C(=O)NC3 [ESK981, 13-isobutyl-4-methyl-10-(pyrimidin-2-ylamino)-1,2,4,7,8,13-hexahydro-6H-indazolo[5,4-a]pyrrolo[3,4-c]carbazol-6-one] | strikingly enhanced | significantly extending survival | upregulated
2 | Cc1cccc(/C=N/Nc2cc(N3CCOCC3)nc(OCCc3ccccn3)n2)c1 [apilimod, N-[(E)-(3-methylphenyl)methylideneamino]-6-morpholin-4-yl-2-(2-pyridin-2-ylethoxy)pyrimidin-4-amine] | strikingly enhanced | significantly extending survival | upregulated
